Converted amounts (≈) assume the structure as drawn. Read-outs that look alike come from different tables or passages of the source. No end group written: not given here.

Assay [1] deals with MRSA isolate 2468. The assay can be described thus: microbe, parasite or virus in culture. Format: cell-based, Staphylococcus aureus. The procedure: (§1) Determination of MIC by broth microdilution was followed the Clinical and Laboratory Standard Institute (CLSI) guidelines. Cation-adjusted Mueller–Hinton broth (CAMHB) was used as a diluent. The purified substance (100 μL) was prepared by making the 2-fold dilution in the range of 0.125–32 μg/mL, and an aliquot (10 μL) of diluted suspension of the indicator strains (5 × 10^5 CFU/mL) was added into each well. Indicator strains without sample were a positive control, while CAMHB alone was the negative control. The 96-well plates were incubated at 37 °C for 24 h and measured the bacterial growth. […] MBC was determined by further spreading 10 µL of sample in each well on MH agar and incubated at 37 °C overnight.
(§2) The peptide sequence of the purified substance of WUL10 was analyzed by the Q-Exactive HF LC-MS/MS Orbitrap system. Briefly, the protonated peptides were first desalted on-line on a reverse-phase C18 PepMap 100 trapping column before being resolved onto a C18 PepMap 100 capillary column with a 70 min gradient of 0.1% HCO2H/H2O (mobile phase (MP): A) and 0.1% HCO2H/CH3CN (MP: B) at a flow rate of 300 nL/min. Peptides were analyzed by applying a data-dependent Top5 acquisition mode followed by a higher-energy collisional dissociation (HCD) at collision energy of 28. Full-scan (MS) mass spectra were acquired from m/z 400 to 2000 with an AGC target set at 3 × 10^6 ions and a resolution of 120,000. MS/MS scan was initiated when the ACG target reached 2 × 10^5 ions and a resolution of 30,000. The raw LC-MS file from LC-MS/MS was imported to PeakX studio 10.0 (Bioinformatics Solutions Inc., Waterloo, CA, USA). The peptide ion intensity with +2 to +5 charge states was automated de novo peptide sequenced with default parameters with minor modifications. Briefly, mass error tolerance for MS and MS/MS were 15 ppm and 0.1 Da, respectively. HCD-fragmentation series on b- and y-ion series were used to predict the peptide sequence. The confidence score was set at the high level of confidence to obtain a reliable set of high-precision peptides. The acceptable de novo peptide sequences were achieved by filtering average local confidence (ALC) to ≥50%. The acceptable peptide sequences with an average local confidence (ALC) threshold of ≥50% were submitted to the antimicrobial peptide scanner to analyze the probability of antimicrobial peptides. A number of resulting peptides (18 synthetic peptides) were synthesized by Kelowna International Scientific Inc. (Taipei City, Taiwan) with purity of more than 85%, and they were prepared in a 2-fold dilution with CAMHB before examining the antimicrobial activity by broth microdilution. MIC and MBC were measured from 3 independent replicates.

In assay [2] the test system is S. aureus TISTR 517. The experiment in a line: microbe, parasite or virus in culture. Type of assay: cell-based, Staphylococcus aureus. The procedure: as §1, §2
Assay [3] deals with MRSA isolate 2468. The assay can be described thus: Agar well diffusion assay. Type of assay: cell-based, Staphylococcus aureus. Particulars: mean ± SD, n = 3. As to the method:
(§3) WUL10 colony was inoculated in 50 mL of half formula of Luria-Bertani (half LB) broth (Titan Biotech Ltd., Rajasthan, India), and incubated at 30 °C, 150 rpm overnight. The culture was adjusted the turbidity equivalent to 0.5 McFarland standard by 0.85% NaCl, and then, 2 mL of this preculture was transferred in 200 mL of half LB broth. The culture was shaken at 30 °C, 150 rpm for 7 days, and an aliquot of samples (2 mL) was collected at different time interval. One mL of sample was measured the cell growth by spectrophotometer at 625 nm (Thermo Fisher Scientific, Waltham, MA, USA). The remaining sample was centrifuged at 10,000× g, 4 °C for 30 min (Sigma-Aldrich Co., St. Louis, MO, USA), and the CFS was examined for the antimicrobial activity against all indicator strains by agar well diffusion assay. Three replicates of experiments were carried out, and the zone of inhibition was reported as mean ± SD.
(§4) The colonies of indicator strains were inoculated in 9 mL of sterile 0.85% NaCl, and the cell suspensions were adjusted the turbidity comparably to 0.5 McFarland standard. They were swabbed onto the MH agar, and the wells were punched onto the agar using a pipette tip. One hundred µL of CSF or purified substance of WUL10 was loaded into each well, and the plates were incubated at 37 °C for 24 h. […] The experiments were performed in three independent experiments, and the inhibition zone was measured and reported as mean ± SD [21].

Assay [4] concerns MRSA isolate 1096. The experiment in a line: Broth microdilution MIC and MBC (CLSI). Type of assay: cell-based. Particulars: Staphylococcus aureus. The procedure: as §1
(Broth dilution looks for growth in wells or tubes with falling amounts of substance.)

The test system of assay [5] is MRSA isolate 142. The assay can be described thus: Broth microdilution MIC and MBC (CLSI). To be noted: Staphylococcus aureus. Type of assay: cell-based. The procedure: as §1
Assay [6] concerns MRSA isolate 1096. The experiment in a line: Agar well diffusion assay. Type of assay: cell-based, Staphylococcus aureus. Particulars: Table 1 experiment, mean ± SD, n = 3. The procedure: as §3, §4
For orientation: In agar diffusion tests the substance spreads into inoculated agar from a disc or well.

Assay [7] concerns MRSA isolate 142. The assay can be described thus: Agar well diffusion assay. Particulars: Table 1 experiment, mean ± SD, n = 3. Format: cell-based, Staphylococcus aureus. The procedure:
as §3, §4

For assay [8], the system named is S. aureus TISTR 517. The assay can be described thus: Agar well diffusion assay. Particulars: mean ± SD, n = 3. Format: cell-based, Staphylococcus aureus. As to the method:
as §3, §4

[9] abbreviates: broth microdilution, CAMHB, 37 °C 24 h, n = 3.
Where [10] appears, read: antibiotic 30 µg, Table 4 experiment.
The mark [11] stands for this setting: antibiotic 1 µg, Table 1 experiment.
The mark [12] stands for this setting: antibiotic 30 µg, Table 1 experiment.

On to KVLVKYLGGLLKLAALMV [synthetic peptide], for which the MIC with MRSA isolate 2468 [1] (setting [9]) and in the assay on S. aureus TISTR 517 [2] (setting [9]) was 16 µg/mL throughout.

With `CN[C@H](CC(C)C)C(=O)N[C@H]1C(=O)N[C@@H](CC(N)=O)C(=O)N[C@H]2C(=O)N[C@H]3C(=O)N[C@H](C(=O)N[C@H](C(=O)O)c4cc(O)cc(O)c4-c4cc3ccc4O)[C@H](O)c3ccc(c(Cl)c3)Oc3cc2cc(c3O[C@@H]2O[C@H](CO)[C@@H](O)[C@H](O)[C@H]2O[C@H]2C[C@](C)(N)[C@H](O)[C@H](C)O2)Oc2ccc(cc2Cl)[C@H]1O` [Vancomycin], the “Zone of Inhibition” value with MRSA isolate 2468 [3] (setting [10]) was 26.75 ± 0.18 mm. Further, the MBC against MRSA isolate 2468 [1] (Staphylococcus aureus) stood at 2 µg/mL (≈ 1.38 µM); in the assay with S. aureus TISTR 517 [2] (Staphylococcus aureus, TISTR517), 2 µg/mL (≈ 1.38 µM); with MRSA isolate 1096 [4], 2 µg/mL (≈ 1.38 µM); against MRSA isolate 142 [5], 2 µg/mL (≈ 1.38 µM). Moreover, the MIC in the assay on MRSA isolate 2468 [1] (Staphylococcus aureus, 24 h) stood at 2 µg/mL (≈ 1.38 µM); with S. aureus TISTR 517 [2] (Staphylococcus aureus, TISTR517, 24 h) it was 2 µg/mL (≈ 1.38 µM); with MRSA isolate 1096 [4] (24 h) it was 2 µg/mL (≈ 1.38 µM); in the assay on MRSA isolate 142 [5] (24 h), 2 µg/mL (≈ 1.38 µM).

For the compound `Cc1onc(-c2ccccc2)c1C(=O)N[C@@H]1C(=O)N2[C@@H]1SC(C)(C)[C@@H]2C(=O)O` [Oxacillin], the “Zone of Inhibition” value with MRSA isolate 1096 [6] (antibiotic 1 µg) was 0.00 ± 0.00 mm; in the assay with MRSA isolate 142 [7] (antibiotic 1 µg) it was 0.00 ± 0.00 mm; in the assay on MRSA isolate 2468 [3] (setting [11]) it was 0.00 ± 0.00 mm; in the assay on S. aureus TISTR 517 [8] (setting [11]), 29.29 ± 0.39 mm.

Take `CO[C@@]1(NC(=O)Cc2cccs2)C(=O)N2C(C(=O)O)=C(COC(N)=O)CS[C@@H]21` [Cefoxitin]: the “Zone of Inhibition” value with MRSA isolate 1096 [6] (antibiotic 30 µg) is 0.00 ± 0.00 mm; with MRSA isolate 142 [7] (antibiotic 30 µg) it was 0.00 ± 0.00 mm; in the assay with MRSA isolate 2468 [3] (setting [12]), 0.00 ± 0.00 mm; with S. aureus TISTR 517 [8] (setting [12]), 32.68 ± 0.15 mm; in the assay on S. aureus TISTR 517 [8] (setting [10]), 32.77 ± 0.55 mm. Further, in the assay with S. aureus TISTR 517 [2] (Staphylococcus aureus, TISTR517, broth microdilution, CAMHB, 37 °C 24 h, n = 3, read-out: MIC), the MIC was 2 µg/mL (≈ 4.68 µM).
